pIC50: −log10 of the molar value. Where two headings read alike, the source gives them in different places.
Key:
Type in all cases: cell-based, human
[1] = tested on: HCT116 (colorectal carcinoma, K Ras G13D) cells; test: Cell proliferation (Alamar Blue) assay, HCT116
Method in brief: (§1)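 Cells seeded at 5000/well and allowed 16-24 h at 37° C./5% CO2, then exposed to 3-fold serial dilutions (typically 0.0005 to 10 uM) for 72 h. Viability read by Alamar Blue (1×, 1-3 h) fluorescence at 540/590 nm; IC50 from variable-slope sigmoidal fit.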

[2] = tested on: phosphorylation of RSK1(S380) (the downstream target of ERK1/2); test: Phospho-RSK1(S380) ELISA assay in HT-29 cells; settings: read-out: Mechanistic Cell Assay RSK1 Phos HT29 IC50
Method in brief: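 HT-29 colorectal carcinoma cells (B-RafV600E), plated overnight at 37° C./5% CO2, were treated with compound dilutions for 2 h. Lysates were analysed by phospho-RSK1(Ser380) sandwich ELISA with absorbance at 450 nm. IC50 came from a sigmoidal variable-slope dose-response fit.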

[3] = tested on: HT-29 (colorectal carcinoma, B-RafV600E) cells; test: Cell proliferation (Alamar Blue) assay, HT-29
Method in brief: as §1

[4] = Homo sapiens, HCT-116, HCT116 cells
[5] = Homo sapiens, HT-29, HT29 cells
[6] = Homo sapiens, HT-29, HT29 cells, phospho-RSK1(S380)

Compound | pIC50 [1, 4] | pIC50 [2, 5] | pIC50 [3, 5] | pIC50 [2, 6] | pIC50 ([1]; HCT116 cells) | pIC50 ([2]; HT29 cells, phospho-RSK1(S380)) | pIC50 ([3]; HT29 cells)
Cc1cnc(N[C@H]2CCOC2)nc1-n1cnc(C(=O)NCc2cccc(CO)c2Cl)c1 [Example 338, (S)-N-(2-chloro-3-(hydroxymethyl)benzyl)-1-(5-methyl-2-((tetrahydrofuran-3-yl)amino)pyrimidin-4-yl)-1H-imidazole-4-carboxamide] | 5.60 to 6.30 | 5.60 to 6.30 | < 5.60 |  |  |  | 
Cc1cnc(Nc2cccnc2)cc1-n1ccc(C(=O)NC(CO)c2ccc(F)c(Cl)c2)c1 (stereo not drawn) [Example 171, N-(1-(3-chloro-4-fluorophenyl)-2-hydroxyethyl)-1-(5-methyl-2-(pyridin-3-ylamino)pyridin-4-yl)-1H-pyrrole-3-carboxamide] | < 5.60 |  | 5.60 to 6.30 | < 5.60 |  |  | 
Cc1cnc(Nc2ccc3c(c2)OCO3)nc1-n1ccc(C(=O)NC(CO)c2cccc(Cl)c2F)c1 (stereo not drawn) [Example 70, 1-(2-(benzo[d][1,3]dioxol-5-ylamino)-5-methyl-pyrimidin-4-yl)-N-(1-(3-chloro-2-fluorophenyl)-2-hydroxy-ethyl)-1H-pyrrole-3-carboxamide] | 5.60 to 6.30 |  | < 5.60 | 6.30 to 6.60 |  |  | 
Cc1cnc(NC2CCCOC2)nc1-n1ccc(C(=O)N[C@H](CO)c2cccc(Cl)c2)c1 (stereo partly drawn) [Example 156, N-((S)-1-(3-chloro-phenyl)-2-hydroxy-ethyl)-1-(5-methyl-2-((tetrahydro-2H-pyran-3-yl)amino)-pyrimidin-4-yl)-1H-pyrrole-3-carboxamide] |  |  |  |  | 5.60 to 6.30 | 6.30 to 6.60 | 6.30 to 6.60
CC[C@H](CO)Nc1cc(-n2cnc(C(=O)N[C@H](CO)c3cccc(Cl)c3)c2)ccn1 [Cmpd 105, N-((S)-1-(3-chlorophenyl)-2-hydroxy-ethyl)-1-(2-(((R)-1-hydroxy-butan-2-yl)amino)pyridin-4-yl)-1H-imidazole-4-carboxamide] | < 5.60 |  | < 5.60 | 6.60 to 7.00 |  |  | 
Cc1cnc(NC2CCOCC2)nc1-n1cnc(C(=O)NCc2cccc(Cl)c2F)c1 [Example 309, N-(3-chloro-2-fluorobenzyl)-1-(5-methyl-2-((tetrahydro-2H-pyran-4-yl)amino)pyrimidin-4-yl)-1H-imidazole-4-carboxamide] | 5.60 to 6.30 | 5.60 to 6.30 | 6.30 to 6.60 |  |  |  | 
Cc1cnc(Nc2ccc(F)cc2Cl)cc1-n1ccc(C(=O)NC(CO)c2cccc(Cl)c2)c1 (stereo not drawn) [Example 91, 1-(2-((2-chloro-4-fluorophenyl)amino)-5-methyl-pyridin-4-yl)-N-(1-(3-chlorophenyl)-2-hydroxy-ethyl)-1H-pyrrole-3-carboxamide] | < 5.60 |  | 5.60 to 6.30 | 5.60 to 6.30 |  |  | 
Cc1cnc(NC2CCOCC2)nc1-n1cnc(C(=O)NCc2ccc(Cl)c(CO)c2)c1 [Example 330, N-(4-chloro-3-(hydroxymethyl)benzyl)-1-(5-methyl-2-((tetrahydro-2H-pyran-4-yl)amino)pyrimidin-4-yl)-1H-imidazole-4-carboxamide] | < 5.60 | 6.30 to 6.60 | 5.60 to 6.30 |  |  |  | 
Cc1cnc(NC2CCCOC2)nc1-n1ccc(C(=O)N[C@H](CO)c2cccc(Cl)c2)c1 (stereo partly drawn) [Example 152, N-((S)-1-(3-chlorophenyl)-2-hydroxy-ethyl)-1-(5-methyl-2-((tetrahydro-2H-pyran-3-yl)amino)pyrimidin-4-yl)-1H-pyrrole-3-carboxamide] | 5.60 to 6.30 |  |  |  |  | 6.60 to 7.00 | 6.60 to 7.00
Cc1cnc(NC2CCOCC2)nc1-n1cnc(C(=O)N[C@H](CN)c2cccc(Cl)c2)c1 [Cmpd 225a] | ≥ 7.00 |  | ≥ 7.00 | ≥ 7.00 |  |  | 
Cc1cnc(NC2CCNC2)nc1-n1ccc(C(=O)N[C@H](CO)c2cccc(Cl)c2)c1 (stereo partly drawn) [Example 174, N-((S)-1-(3-chlorophenyl)-2-hydroxyethyl)-1-(5-methyl-2-(pyrrolidin-3-ylamino)pyrimidin-4-yl)-1H-pyrrole-3-carboxamide] | < 5.60 |  | < 5.60 | < 5.60 |  |  | 
Cc1cnc(NC2CCCN(C)C2)nc1-n1ccc(C(=O)NC(CO)c2cccc(Cl)c2)c1 (stereo not drawn) [Example 199, N-(1-(3-chlorophenyl)-2-hydroxyethyl)-1-(5-methyl-2-((1-methylpiperidin-3-yl)amino)pyrimidin-4-yl)-1H-pyrrole-3-carboxamide] | < 5.60 |  | 5.60 to 6.30 | 5.60 to 6.30 |  |  | 
Cc1cnc(Nc2ccc3c(c2)OC(F)(F)O3)nc1-n1ccc(C(=O)N[C@H](CO)c2ccc(F)c(Cl)c2)c1 [Example 69, (S)-N-(1-(3-chloro-4-fluoro-phenyl)-2-hydroxy-ethyl)-1-(2-((2,2-difluoro-benzo[d][1,3]dioxol-5-yl)amino)-5-methyl-pyrimidin-4-yl)-1H-pyrrole-3-carboxamide] | 5.60 to 6.30 |  | 5.60 to 6.30 | 5.60 to 6.30 |  |  | 
Cc1cnc(N[C@H]2CCOC2)nc1-n1cnc(C(=O)NCc2cccc(Cl)c2)c1 [Example 318, (S)-N-(3-chlorobenzyl)-1-(5-methyl-2-((tetrahydrofuran-3-yl)amino)pyrimidin-4-yl)-1H-imidazole-4-carboxamide] | < 5.60 | 5.60 to 6.30 | 5.60 to 6.30 |  |  |  | 
O=C(N[C@H](CO)c1cccc(Cl)c1)c1cn(-c2ccnc(NC3CCOC3)c2)cn1 (stereo partly drawn) [Example 170, N-((S)-1-(3-chlorophenyl)-2-hydroxyethyl)-1-(2-((tetrahydrofuran-3-yl)amino)pyridin-4-yl)-1H-imidazole-4-carboxamide] | < 5.60 |  | 5.60 to 6.30 | < 5.60 |  |  | 

Further lines, results first:

pIC50 [1, 4] | pIC50 [2, 5] | pIC50 [3, 5] | pIC50 [2, 6] | pIC50 ([1]; HCT116 cells) | pIC50 ([2]; HT29 cells, phospho-RSK1(S380)) | pIC50 ([3]; HT29 cells) | Compound
≥ 7.00 |  | ≥ 7.00 | ≥ 7.00 |  |  |  | Cc1cnc(Nc2ccnn2C)nc1-n1cnc(C(=O)N[C@H](CN)c2cccc(Cl)c2)c1 [Example 280, (S)-N-(2-amino-1-(3-chlorophenyl)ethyl)-1-(5-methyl-2-((1-methyl-1H-pyrazol-5-yl)amino)pyrimidin-4-yl)-1H-imidazole-4-carboxamide]
5.60 to 6.30 |  | 5.60 to 6.30 | 5.60 to 6.30 |  |  |  | Cc1cn(-c2nc(Nc3ccc(F)cc3)ncc2C)cc1C(=O)NC(CO)c1cccc(Cl)c1 (stereo not drawn) [Example 107, N-(1-(3-chlorophenyl)-2-hydroxy-ethyl)-1-(2-((4-fluoro-phenyl)amino)-5-methyl-pyrimidin-4-yl)-4-methyl-1H-pyrrole-3-carboxamide]
5.60 to 6.30 |  | 6.30 to 6.60 | 5.60 to 6.30 |  |  |  | Cc1cnc(Nc2ccc(F)cc2Cl)nc1-n1ccc(C(=O)NC(CO)c2cccc(Cl)c2)c1 (stereo not drawn) [Example 31, 1-(2-((2-chloro-4-fluorophenyl)amino)-5-methyl-pyrimidin-4-yl)-N-(1-(3-chlorophenyl)-2-hydroxy-ethyl)-1H-pyrrole-3-carboxamide]
5.60 to 6.30 |  | 5.60 to 6.30 | < 5.60 |  |  |  | Cc1cnc(Nc2ccc3[nH]ncc3c2)nc1-n1ccc(C(=O)NC(CO)c2ccccc2)c1 (stereo not drawn) [Example 140, 1-(2-((1H-indazol-5-yl)amino)-5-methyl-pyrimidin-4-yl)-N-(2-hydroxy-1-phenylethyl)-1H-pyrrole-3-carboxamide]
6.60 to 7.00 |  | ≥ 7.00 | 6.60 to 7.00 |  |  |  | Cc1cnc(Nc2ccc(F)cc2)nc1-n1cnc(C(=O)NC(CN)c2cccc(Cl)c2)c1 (stereo not drawn) [Example 177, N-(2-amino-1-(3-chlorophenyl)ethyl)-1-(2-((4-fluorophenyl)amino)-5-methylpyrimidin-4-yl)-1H-imidazole-4-carboxamide]
6.60 to 7.00 |  | 5.60 to 6.30 | 6.30 to 6.60 |  |  |  | COc1cc(Nc2ncc(C)c(-n3ccc(C(=O)NC(CO)c4ccccc4)c3)n2)ccc1F (stereo not drawn) [Example 154, 1-(2-((4-fluoro-3-methoxy-phenyl)amino)-5-methyl-pyrimidin-4-yl)-N-(2-hydroxy-1-phenylethyl)-1H-pyrrole-3-carboxamide]
< 5.60 |  | < 5.60 | 5.60 to 6.30 |  |  |  | Cc1cnc(Nc2ccc(F)cc2Cl)nc1-n1ccc(C(=O)NC(CO)c2ccccc2)c1 (stereo not drawn) [Example 32, 1-(2-((2-chloro-4-fluorophenyl)amino)-5-methyl-pyrimidin-4-yl)-N-(2-hydroxy-1-phenylethyl)-1H-pyrrole-3-carboxamide]
< 5.60 |  | < 5.60 | < 5.60 |  |  |  | Cc1cnc(NC2CCNCC2)nc1-n1cnc(C(=O)NC(CO)c2cccc(Cl)c2)c1 (stereo not drawn) [Example 214, N-(1-(3-chlorophenyl)-2-hydroxyethyl)-1-(5-methyl-2-(piperidin-4-ylamino)pyrimidin-4-yl)-1H-imidazole-4-carboxamide]
5.60 to 6.30 |  | 5.60 to 6.30 | 5.60 to 6.30 |  |  |  | Cc1cnc(Nc2ccc(F)c(C(=O)N3CCN(C)CC3)c2)nc1-n1ccc(C(=O)NC(CO)c2cccc(Cl)c2)c1 (stereo not drawn) [Example 179, N-(1-(3-chlorophenyl)-2-hydroxyethyl)-1-(2-((4-fluoro-3-(4-methylpiperazine-1-carbonyl)phenyl)amino)-5-methylpyrimidin-4-yl)-1H-pyrrole-3-carboxamide]
≥ 7.00 |  | ≥ 7.00 | 6.60 to 7.00 |  |  |  | Cc1cnc(NC2CC(F)(F)C2)nc1-n1cnc(C(=O)N[C@H](CN)c2cc(F)cc(Cl)c2)c1 [Example 288, (S)-N-(2-amino-1-(3-chloro-5-fluorophenyl)ethyl)-1-(2-((3,3-difluorocyclobutyl)amino)-5-methylpyrimidin-4-yl)-1H-imidazole-4-carboxamide]

Reference: patent publication US11925629B2, “Heterocyclic inhibitors of ERK1 and ERK2 and their use in the treatment of cancer” (Asana Biosciences, LLC, priority 2015, dated 2024)
